Laboratory results reported in patent publication US20060154243A1 (priority 2003, published 2006).

Experiments:
[1] = tested on: serum 1a (individual 1, early serum); type: binding, human
serum 2 (individual 2) = type: binding, human
serum SARS-green = type: binding, human
[2] = tested on: control serum LUMC (pooled serum of ten healthy hospital workers); type: binding, human
serum London = type: binding, human
serum 37 (individual 37) = type: binding, human
[3] = tested on: serum 1b (individual 1, late serum); type: binding, human
[4] = tested on: control serum Blood-bank (commercial negative donor pooled serum); type: binding, human
serum 62 (individual 62) = type: binding, human
serum SARS-yellow = type: binding, human
serum 6 (individual 6) = type: binding, human
[5] = tested on: rabbit serum obtained by immunizing with SARS-CoV strain Frankfurt 1; type: binding
[6] = tested on: sera SARS-green, SARS-yellow, 1a, 1b, 2, 6, 37, 62 and London; type: binding, human

Sequence	Control serum LUMC linear peptides [2]	Control serum LUMC looped peptides [2]	Control Serum Blood-Bank Looped peptides [4]	Control serum Blood-bank linear peptides [4]	Rabbit serum linear peptides [5]	Rabbit serum looped peptides [5]	Recognition of the peptide by sera of individuals infected by SARS-CoV, form recognized [6]	other results
LLAPHHVVAVIQEIQ	0.6	0.8	0.8	0.4				Binding of serum 1a to linear peptides of Orf14 of SARS-CoV TOR2 [1]: 0.5; Binding of serum 2 to linear peptides of Orf14 of SARS-CoV TOR2 (serum 2 (individual 2)): 0.5; Binding of serum SARS-green to linear peptides of Orf14 of SARS-CoV TOR2 (serum SARS-green): 0.3; Binding of serum London to linear peptides of Orf14 of SARS-CoV TOR2 (serum London): 0.5; Binding of serum 37 to linear peptides of Orf14 of SARS-CoV TOR2 (serum 37 (individual 37)): 0.6; Binding of serum 1b to linear peptides of Orf14 of SARS-CoV TOR2 [3]: 0.5; Binding of serum 62 to linear peptides of Orf14 of SARS-CoV TOR2 (serum 62 (individual 62)): 0.5; Binding of serum SARS-yellow to linear peptides of Orf14 of SARS-CoV TOR2 (serum SARS-yellow): 0.5; Binding of serum 6 to linear peptides of Orf14 of SARS-CoV TOR2 (serum 6 (individual 6)): 0.5
FWFSLEIQDLEEPCT	0.3	0.8	1.1	0.5	0.1	0.5	recognized in linear and in looped form	
QEIQLLAAVGEILLL	0.7	0.5	0.6	0.4				Binding of serum 1a to linear peptides of Orf14 of SARS-CoV TOR2 [1]: 0.5; Binding of serum 2 to linear peptides of Orf14 of SARS-CoV TOR2 (serum 2 (individual 2)): 0.5; Binding of serum SARS-green to linear peptides of Orf14 of SARS-CoV TOR2 (serum SARS-green): 0.2; Binding of serum London to linear peptides of Orf14 of SARS-CoV TOR2 (serum London): 0.3; Binding of serum 37 to linear peptides of Orf14 of SARS-CoV TOR2 (serum 37 (individual 37)): 0.6; Binding of serum 1b to linear peptides of Orf14 of SARS-CoV TOR2 [3]: 0.4; Binding of serum 62 to linear peptides of Orf14 of SARS-CoV TOR2 (serum 62 (individual 62)): 0.4; Binding of serum SARS-yellow to linear peptides of Orf14 of SARS-CoV TOR2 (serum SARS-yellow): 0.5; Binding of serum 6 to linear peptides of Orf14 of SARS-CoV TOR2 (serum 6 (individual 6)): 0.4
LIIFWFSLEIQDLEE	0.7	0.9	0.7	0.8	0.5	0.7	recognized in linear and in looped form	
IFWFSLEIQDLEEPC	0.7	0.8	0.8	0.8	0.3	0.5	recognized in linear and in looped form	
HVVAVIQEIQLLAAV	0.5	0.4	0.6	0.4				Binding of serum 1a to linear peptides of Orf14 of SARS-CoV TOR2 [1]: 0.5; Binding of serum 2 to linear peptides of Orf14 of SARS-CoV TOR2 (serum 2 (individual 2)): 0.5; Binding of serum SARS-green to linear peptides of Orf14 of SARS-CoV TOR2 (serum SARS-green): 0.1; Binding of serum London to linear peptides of Orf14 of SARS-CoV TOR2 (serum London): 0.4; Binding of serum 37 to linear peptides of Orf14 of SARS-CoV TOR2 (serum 37 (individual 37)): 0.6; Binding of serum 1b to linear peptides of Orf14 of SARS-CoV TOR2 [3]: 0.4; Binding of serum 62 to linear peptides of Orf14 of SARS-CoV TOR2 (serum 62 (individual 62)): 0.3; Binding of serum SARS-yellow to linear peptides of Orf14 of SARS-CoV TOR2 (serum SARS-yellow): 0.4; Binding of serum 6 to linear peptides of Orf14 of SARS-CoV TOR2 (serum 6 (individual 6)): 0.4
TRMEDAMGQGQNSAD					0.4	0.4	only recognized in looped form	
KLATTEELPDEFVVV					0.2	0.5	recognized in linear and in looped form	
CSCICTVVQRCASNK					0.1	0.0	recognized in linear and in looped form	
LIMLIIFWFSLEIQD	1.1	0.7	0.7	0.9	0.4	0.6	recognized in linear and in looped form	
QMTKLATTEELPDEF					0.1	0.6	recognized in linear and in looped form	
WFSLEIQDLEEPCTK	0.5	0.5	0.7	0.6	0.0	0.4	recognized in linear and in looped form	
ITRMEDAMGQGQNSA					0.1	0.4	only recognized in looped form	
SCICTVVQRCASNKP					0.0	0.8	recognized in linear and in looped form	
RCASNKPHVLEDPCK					0.1	0.6	recognized in linear and in looped form	
VQMTKLATTEELPDE					0.3	0.6	recognized in linear and in looped form	
MLIIFWFSLEIQDLE	0.9	0.8	0.7	1.0	1.7	0.5	recognized in linear and in looped form	

Sequence	Control serum LUMC linear peptides [2]	Control serum LUMC looped peptides [2]	Control Serum Blood-Bank Looped peptides [4]	Control serum Blood-bank linear peptides [4]	Rabbit serum linear peptides [5]	Rabbit serum looped peptides [5]	Recognition of the peptide by sera of individuals infected by SARS-CoV, form recognized [6]	other results
CICTVVQRCASNKPH					0.0	0.5	recognized in linear and in looped form	
TKLATTEELPDEFVV					0.1	0.6	recognized in linear and in looped form	
VVQRCASNKPHVLED					0.2	0.5	recognized in linear and in looped form	
TITRMEDAMGQGQNS					0.1	0.6	only recognized in looped form	
QRCASNKPHVLEDPC					0.1	0.5	recognized in linear and in looped form	
PPALHLVDPQIQLTI					0.2	0.3	recognized in linear and in looped form	
FSLEIQDLEEPCTKV	0.6	0.7	1.0	0.7	0.4	0.5	recognized in linear and in looped form	
MEDAMGQGQNSADPK					0.1	0.4	only recognized in looped form	
RMEDAMGQGQNSADP					0.1	0.5	only recognized in looped form	
IIFWFSLEIQDLEEP	0.7	0.8	0.9	0.9	0.4	0.0	recognized in linear and in looped form	
ATTEELPDEFVVVTA					0.1	0.5	recognized in linear and in looped form	
DPNQTNVVPPALHLV					2.3	0.2	recognized in linear and in looped form	
IMLIIFWFSLEIQDL	0.7	0.4	0.6	0.8	0.9	0.1	recognized in linear and in looped form	
LATTEELPDEFVVVT					0.1	0.6	recognized in linear and in looped form	
QTNVVPPALHLVDPQ					0.1	0.4	recognized in linear and in looped form	
MTKLATTEELPDEFV					0.1	0.6	recognized in linear and in looped form	
